In brackets after ≈: the same amount, converted by molar mass. Structures can show the parent of a compound that is named as a salt. Where two headings read alike, the source gives them in different places.
Columns and labels:
Type in all cases: cell-based
[1] = system: Strep. A; assay: Agar dilution MIC, Strep. A; settings: Table I, strain C203
Source text: (§1) A typical and preferred compound provided by this invention is 7-(2-naphthylglycylamido)-3-methyl-3-cephem-4-carboxylic acid, the compound of Example 3. The antibacterial activity of this compound and several others of the invention has been determined in standard in vitro agar dilution assays against a variety of gram positive microorganisms. The following Tables present typical minimum inhibitory concentrations (MIC's) in μg/ml for the compounds when evaluated against the indicated microorganisms. MIC's for several known compounds are also presented for comparison.

[2] = system: Strep. PN; assay: Agar dilution MIC, Strep. PN; settings: Table I, strain PARK
Source text: (§2) The following Tables present typical minimum inhibitory concentrations (MIC's) in μg/ml for the compounds when evaluated against the indicated microorganisms.

[3] = system: Staph. aureus; assay: Agar dilution MIC, Staph. aureus
Source text: as §2

[4] = system: Staph. epi; assay: Agar dilution MIC, Staph. epi
Source text: as §2

[5] = system: Klebsiella; assay: Agar dilution MIC, Klebsiella; settings: Table I, strain X26
Source text: as §1

[6] = system: H. influ.; assay: Agar dilution MIC, H. influenza
Source text: as §2

[7] = Staphylococcus aureus, Table II, strain S224, read-out: MIC
[8] = Staphylococcus aureus, Table II, strain S225, read-out: MIC
[9] = Staphylococcus aureus, Table II, strain S226, read-out: MIC
[10] = Staphylococcus aureus, Table II, strain S227, read-out: MIC
[11] = Staphylococcus aureus, Table II, strain S228, read-out: MIC
[12] = Staphylococcus aureus, Table II, strain S229, read-out: MIC
[13] = Staphylococcus aureus, Table II, strain S230, read-out: MIC
[14] = Staphylococcus aureus, Table II, strain S231, read-out: MIC
[15] = Staphylococcus aureus, Table II, strain S234, read-out: MIC
[16] = Staphylococcus aureus, Table II, strain S237, read-out: MIC
[17] = Staphylococcus aureus, Table II, strain S238, read-out: MIC
[18] = Staphylococcus aureus, Table II, strain S239, read-out: MIC
[19] = Table II expanded spectrum, strain EPI1, read-out: MIC
[20] = Table II, strain 219, read-out: MIC
[21] = Table II, strain 269, read-out: MIC
[22] = Table II, strain 270, read-out: MIC
[23] = Table II, strain 285, read-out: MIC
[24] = Table II, strain 286, read-out: MIC
[25] = Table II, strain 76, read-out: MIC
[26] = Table II, strain 1930, read-out: MIC
[27] = Table II, strain C.L., read-out: MIC
[28] = Table II, strain HESS, read-out: MIC
[29] = Table II, strain M366, read-out: MIC
[30] = Table II, strain R465, read-out: MIC
[31] = Table II, strain STEL, read-out: MIC
[32] = Staphylococcus aureus, Table I, strain V41, read-out: MIC
[33] = Staphylococcus aureus, Table I, strain X1.1, read-out: MIC
[34] = Staphylococcus aureus, Table I, strain X400, read-out: MIC
[35] = Table I, strain 222, read-out: MIC
[36] = Table I, strain EPI1, read-out: MIC
[37] = Table I, strain BRUN, read-out: MIC
[38] = Staphylococcus aureus, Table I, strain S13E
[39] = Table I, strain 251, read-out: MIC

Row | SMILES | MIC [3, 7] | MIC [3, 8] | MIC [3, 9] | MIC [3, 10] | MIC [3, 11] | MIC [3, 12] | MIC [3, 13] | MIC [3, 14] | MIC [3, 15] | MIC [3, 16] | MIC [3, 17] | MIC [3, 18] | MIC [4, 19] | MIC ([1]; read-out: MIC) | MIC ([2]; read-out: MIC) | MIC [3, 32] | MIC [4, 35] | MIC [4, 36] | MIC ([5]; Klebsiella, read-out: MIC) | MIC [6, 37] | other results
1 | N[C@@H](C(=O)N[C@@H]1C(=O)N2C(C(=O)O)=C(Cl)CS[C@H]12)c1ccc2ccccc2c1 [Ex. 5A, D-7-(2-naphthylglycylamido)-3-chloro-3-cephem-4-carboxylic acid] | – | – | – | – | – | – | – | – | – | – | – | – | – | – | – | – | – | – | – | – | MIC [1]: 0.125 µg/mL (≈ 0.299 µM); MIC [2]: 0.125 µg/mL (≈ 0.299 µM); MIC ([3]; Table I, strain S13E): 16 µg/mL (≈ 38.3 µM); MIC ([3]; Table I, strain V41): 16 µg/mL (≈ 38.3 µM); MIC ([4]; Table I, strain EPI1): 2 µg/mL (≈ 4.79 µM); MIC [5]: 2 µg/mL (≈ 4.79 µM); MIC ([6]; Table I, strain 251): 2 µg/mL (≈ 4.79 µM); MIC ([6]; Table I, strain BRUN): 4 µg/mL (≈ 9.57 µM)
2 | COCC1=C(C(=O)O)N2C(=O)C(NC(=O)[C@H](N)c3ccc4ccccc4c3)C2SC1 (stereo partly drawn) [Example 8, 7-(2-Naphthylglycylamido)-3-methoxymethyl-3-cephem-4-carboxylic acid] | 0.5 µg/mL (≈ 1.17 µM) | 0.5 µg/mL (≈ 1.17 µM) | 1 µg/mL (≈ 2.34 µM) | 0.5 µg/mL (≈ 1.17 µM) | 0.5 µg/mL (≈ 1.17 µM) | 1 µg/mL (≈ 2.34 µM) | 0.5 µg/mL (≈ 1.17 µM) | 0.5 µg/mL (≈ 1.17 µM) | 1 µg/mL (≈ 2.34 µM) | 0.5 µg/mL (≈ 1.17 µM) | 1 µg/mL (≈ 2.34 µM) | 1 µg/mL (≈ 2.34 µM) | 4 µg/mL (≈ 9.36 µM) | – | – | – | – | – | – | – | MIC [4, 20]: 0.5 µg/mL (≈ 1.17 µM); MIC [4, 21]: 2 µg/mL (≈ 4.68 µM); MIC [4, 22]: 2 µg/mL (≈ 4.68 µM); MIC [4, 23]: 1 µg/mL (≈ 2.34 µM); MIC [4, 24]: 0.5 µg/mL (≈ 1.17 µM); MIC [6, 25]: 8 µg/mL (≈ 18.7 µM); MIC ([6]; Table II, strain 105, read-out: MIC): 8 µg/mL (≈ 18.7 µM); MIC ([6]; Table II, strain 158, read-out: MIC): 8 µg/mL (≈ 18.7 µM); MIC ([6]; Table II, strain 164, read-out: MIC): 8 µg/mL (≈ 18.7 µM); MIC ([6]; Table II, strain 169, read-out: MIC): 8 µg/mL (≈ 18.7 µM); MIC ([6]; Table II, strain 171, read-out: MIC): 8 µg/mL (≈ 18.7 µM); MIC ([6]; Table II, strain 312, read-out: MIC): 8 µg/mL (≈ 18.7 µM); MIC [6, 26]: 16 µg/mL (≈ 37.4 µM); MIC ([6]; Table II, strain 4842, read-out: MIC): 8 µg/mL (≈ 18.7 µM); MIC [6, 27]: 8 µg/mL (≈ 18.7 µM); MIC [6, 28]: 8 µg/mL (≈ 18.7 µM); MIC [6, 29]: > 64 µg/mL; MIC [6, 30]: 16 µg/mL (≈ 37.4 µM); MIC [6, 31]: > 64 µg/mL
3 | CC1=C(C(=O)O)N2C(=O)C(NC(=O)[C@H](N)c3ccc4cc(Cl)ccc4c3)C2SC1 (stereo partly drawn) [Example 7, D-7-(6-chloronaphth-2-ylglycylamido)-3-methyl-3-cephem-4-carboxylic acid] | 0.5 µg/mL (≈ 1.16 µM) | 0.5 µg/mL (≈ 1.16 µM) | 1 µg/mL (≈ 2.32 µM) | 0.5 µg/mL (≈ 1.16 µM) | 0.5 µg/mL (≈ 1.16 µM) | 1 µg/mL (≈ 2.32 µM) | 0.5 µg/mL (≈ 1.16 µM) | 0.25 µg/mL (≈ 0.579 µM) | 1 µg/mL (≈ 2.32 µM) | 0.5 µg/mL (≈ 1.16 µM) | 1 µg/mL (≈ 2.32 µM) | 1 µg/mL (≈ 2.32 µM) | 8 µg/mL (≈ 18.5 µM) | 0.06 µg/mL (≈ 0.139 µM) | 0.25 µg/mL (≈ 0.579 µM) | 8 µg/mL (≈ 18.5 µM) | 0.5 µg/mL (≈ 1.16 µM) | 4 µg/mL (≈ 9.26 µM) | 8 µg/mL (≈ 18.5 µM) | 32 µg/mL (≈ 74.1 µM) | MIC [3, 33]: 0.25 µg/mL (≈ 0.579 µM); MIC [3, 34]: 64 µg/mL (≈ 148 µM); MIC [4, 21]: 4 µg/mL (≈ 9.26 µM); MIC [4, 22]: 4 µg/mL (≈ 9.26 µM); MIC [4, 23]: 2 µg/mL (≈ 4.63 µM); MIC [4, 24]: 1 µg/mL (≈ 2.32 µM); MIC [6, 25]: 16 µg/mL (≈ 37 µM); MIC [6, 26]: 16 µg/mL (≈ 37 µM); MIC [6, 27]: 32 µg/mL (≈ 74.1 µM); MIC [6, 28]: 32 µg/mL (≈ 74.1 µM); MIC [6, 29]: > 64 µg/mL; MIC [6, 30]: 32 µg/mL (≈ 74.1 µM); MIC [6, 31]: > 64 µg/mL
4 | N[C@H](C(=O)N[C@@H]1C(=O)N2C(C(=O)O)=C(Cl)CS[C@H]12)c1ccc2ccccc2c1 [Ex. 5B, L-7-(2-naphthylglycylamido)-3-chloro-3-cephem-4-carboxylic acid] | – | – | – | – | – | – | – | – | – | – | – | – | – | – | – | – | – | – | – | – | MIC [1]: 4 µg/mL (≈ 9.57 µM); MIC ([3]; Table I, strain X1.1): 8 µg/mL (≈ 19.1 µM); MIC ([4]; Table I, strain 222): 4 µg/mL (≈ 9.57 µM); MIC ([4]; Table I, strain EPI1): 32 µg/mL (≈ 76.6 µM); MIC [5]: 2 µg/mL (≈ 4.79 µM); MIC ([6]; Table I, strain 251): 16 µg/mL (≈ 38.3 µM)
5 | COC1=C(C(=O)O)N2C(=O)C(NC(=O)C(N)c3ccc4ccccc4c3)C2SC1 (racemic) [Example 6, 7-(2-Naphthylglycylamido)-3-methoxy-3-cephem-4-carboxylic acid trifluoroacetate] | – | – | – | – | – | – | – | – | – | – | – | – | – | 0.125 µg/mL | > 138 µg/mL | 32 µg/mL | 2 µg/mL | 8 µg/mL | 8 µg/mL | – | MIC [3, 38]: 32 µg/mL; MIC [3, 33]: 1 µg/mL; MIC [6, 39]: 32 µg/mL
6 | CC1(C)S[C@@H]2[C@H](NC(=O)[C@H](N)c3ccccc3)C(=O)N2[C@H]1C(=O)O [Ampicillin, reference compound] | – | – | – | – | – | – | – | – | – | – | – | – | – | 0.03 µg/mL (≈ 0.0859 µM) | 0.03 µg/mL (≈ 0.0859 µM) | – | – | 8 µg/mL (≈ 22.9 µM) | 16 µg/mL (≈ 45.8 µM) | 0.5 µg/mL (≈ 1.43 µM) | MIC [6, 39]: 16 µg/mL (≈ 45.8 µM)
7 | N[C@@H](C(=O)NC1C(=O)N2C(C(=O)O)=CCSC12)c1ccc2ccccc2c1 (stereo partly drawn) [Example 12, D-7-(2-Naphthylglycylamido)-3-cephem-4-carboxylic acid trifluoroacetate] | – | – | – | – | – | – | – | – | – | – | – | – | – | 0.5 µg/mL | 1 µg/mL | 64 µg/mL | 4 µg/mL | 32 µg/mL | 16 µg/mL | 64 µg/mL | MIC ([3]; Staphylococcus aureus): 4 µg/mL; MIC [3, 38]: 64 µg/mL; MIC [6, 39]: 16 µg/mL
8 | COc1ccc2cc([C@@H](N)C(=O)NC3C(=O)N4C(C(=O)O)=C(C)CSC34)ccc2c1 (stereo partly drawn) [Example 10, D-7-(6-Methoxy-2-naphthyl)glycylamido-3-methyl-3-cephem-4-carboxylic acid] | 0.5 µg/mL (≈ 1.17 µM) | 0.5 µg/mL (≈ 1.17 µM) | 1 µg/mL (≈ 2.34 µM) | 1 µg/mL (≈ 2.34 µM) | 0.5 µg/mL (≈ 1.17 µM) | 1 µg/mL (≈ 2.34 µM) | 0.5 µg/mL (≈ 1.17 µM) | 0.25 µg/mL (≈ 0.585 µM) | 1 µg/mL (≈ 2.34 µM) | 1 µg/mL (≈ 2.34 µM) | 1 µg/mL (≈ 2.34 µM) | 1 µg/mL (≈ 2.34 µM) | 4 µg/mL (≈ 9.36 µM) | 0.125 µg/mL (≈ 0.292 µM) | 0.125 µg/mL (≈ 0.292 µM) | 16 µg/mL (≈ 37.4 µM) | 1 µg/mL (≈ 2.34 µM) | 4 µg/mL (≈ 9.36 µM) | 4 µg/mL (≈ 9.36 µM) | 16 µg/mL (≈ 37.4 µM) | MIC [3, 38]: 16 µg/mL (≈ 37.4 µM); MIC [3, 33]: 0.25 µg/mL (≈ 0.585 µM); MIC [3, 34]: 64 µg/mL (≈ 150 µM); MIC [4, 20]: 5 µg/mL (≈ 11.7 µM); MIC [4, 21]: 2 µg/mL (≈ 4.68 µM); MIC [4, 22]: 4 µg/mL (≈ 9.36 µM); MIC [4, 23]: 2 µg/mL (≈ 4.68 µM); MIC [4, 24]: 0.5 µg/mL (≈ 1.17 µM); MIC [6, 26]: 8 µg/mL (≈ 18.7 µM); MIC [6, 27]: 8 µg/mL (≈ 18.7 µM); MIC [6, 28]: 8 µg/mL (≈ 18.7 µM); MIC [6, 29]: 16 µg/mL (≈ 37.4 µM); MIC [6, 30]: 16 µg/mL (≈ 37.4 µM); MIC [6, 31]: 16 µg/mL (≈ 37.4 µM)
